Laboratory results reported in patent US12534429B2, “Heterodimers of glutamic acid” (Molecular Insight Pharmaceuticals, Inc., priority 2006, dated 2026).

What was measured:
[1] = molecular target: T1, PSMA on LNCaP cells (Homo sapiens, UniProt Q04609); assay: Saturation binding analysis of radiolabeled MIP-1072 in LNCaP cells
T1 construct: LNCaP human prostate cancer cells were obtained from American Type Culture Collection; host or cells: LNCaP human prostate cancer cells
Method: The affinity constant (Kd) of MIP-1072 was determined by saturation binding analysis (FIG. 18). LNCaP cells were incubated for 1 hour with 30-100,000 pM ^131I-MIP-1072 in HBS (50 mM Hepes, pH 7.5, 0.9% sodium chloride) at either 4° C. or 37° C. in the absence or presence of 10 μM unlabeled MIP-1072 (to determine non-specific binding). Cells were then washed and the amount of radioactivity was measured on a gamma counter. Specific binding was calculated as the difference between total binding and nonspecific binding. […] The Bmax, however, was greater at 37° C. than at 4° C.; […] fmol/10^6 cells, respectively, indicating internalization of MIP-1072. The results below are representative of two independent analyses.

[2] = Microsome assay (stability in rat liver microsomes); type: in vitro ADME; conditions: 37° C., 60 min incubation; MIP-1072 50 μM, phenacetin 100 μM
Method: Pooled male rat liver microsomes (1 mg/mL, BD Biosciences), NADPH regenerating system (1.3 mM NADP, 3.3 mM glucose 6-phosphate and 0.4 U/mL glucose 6-phosphate dehydrogenase, BD Biosciences) and test compound (50 μM MIP-1072, 50 μM DCT, and 100 μM phenacetin) were added to 0.1 M potassium phosphate buffer (pH 7.4) in order to monitor the catastrophic degradation of the test compounds. The mixture was incubated at 37° C. and at the indicated time (0, 15, 60 min) the reaction was stopped by the addition of an equal volume of ice cold methanol (500 μL). The resulting slurry was then centrifuged at 21,000×G for 10 min and the supernatant was collected and injected onto an Agilent LCMS model MSD SL using a 95:5 water:acetonitrile (with 0.1% formic acid) to 40:60 water:acetonitrile (with 0.1% formic acid) gradient and monitoring for the parent ion only in single ion mode. The results, shown in FIGS. 11A and 11B, are expressed as degradation of the parent ion with respect to the 0 min time point.
The stability of MIP-1072 was assessed using rat liver microsomes. MIP-1072 (50 μM) and Phenacetin (100 μM) were incubated with rat liver microsomes at 37° C. for the indicated time. Phenacetin was used as a control substance that is known to be metabolized. MIP-1072 was not degraded by the rat liver microsomes during the incubation period. […]

[3] = test system: PC3 (PSMA negative) tumors; assay: Tissue biodistribution of I-131 MIP 1072 in xenograft tumored mice, PC3 tumors; type: in vivo; conditions: I-131-labeled
Text: (§1) The lead compound, MIP 1072, was I-131-labeled for tissue distribution studies in mice with both LNCaP (PSMA positive) and PC3 (PSMA negative) tumors implanted. The compound was radiolabeled by the route shown below.
(§2) A graph depicting the mice distribution is shown below (FIG. 12).

[4] = test system: LnCap cells; assay: Rate of uptake and internalization (acid wash assay) of MIP-1072 in LNCaP cells; type: cell-based, human; conditions: 100 nM; for internalization in LNCaP cells: 4° C. and 37° C.
Method: In order to confirm the results of the Scatchard analysis of FIG. 7 indicating MIP-1072 internalization into LNCaP cells, the rate of uptake of MIP-1072 in LNCaP cells was monitored. Each well was dosed with 100 nM MIP-1072 (2 uCi/well) at 4° C. and 37° C. Binding to PSMA reached equilibrium after 15 min as evidenced by the plateau in the curve at 4° C. The cells incubated at 37° C. continued to internalize MIP-1072 after equilibrium had been reached.
The ability of MIP-1072 to internalize in LNCaP cells was confirmed by an acid wash assay (FIG. 19). LNCaP cells were incubated in HBS with 100 nM ^123I-MIP-1072 for 0-2 hours at 4 and 37° C. At the indicated time the media was removed and the cells were incubated in mild acid buffer (50 mM glycine, 150 mM NaCl, pH 3.0) at 4° C. for 5 minutes. After the brief incubation the cells were centrifuged at 20,000×g for 5 minutes. The supernatant and cell pellet were counted in a gamma counter. In order to confirm the results of the saturation binding analysis indicating MIP-1072 internalization into LNCaP cells, we monitored the rate of uptake of MIP-1072 in LNCaP cells. Each well was dosed with 100 nM MIP-1072 (2 uCi/well) at 4° C. and 37° C. Binding to PSMA reached equilibrium after 15 min as evidenced by the plateau in the curve at 4° C. The cells incubated at 37° C. continued to internalize MIP-1072 after equilibrium had been reached. […] (FIG. 19).

[5] = test system: LNCaP (PSMA positive) tumors; assay: Tissue biodistribution of I-131 MIP 1072 in xenograft tumored mice, LNCaP tumors; type: in vivo; conditions: I-131-labeled
Text: as §1, §2

[6] = molecular target: T1, PSMA on LNCaP cells; assay: In vitro cell binding: competition with I-131 DCIT for binding to PSMA on LNCaP cells; conditions: LnCap cells, dose curves; read-out: IC50 values versus I-131 DCIT
Method: In vitro cold screening assays verses I-131 DCIT. LNCaP and PC3 human prostate cancer cells were obtained from American Type Culture Collection, Rockville, MD LNCaP cells were maintained in RPMI-1640 medium supplemented with 10% fetal bovine serum (FBS). PC3 cells were grown in F12K medium supplemented with 10% FBS. Binding of the radiolabeled compound and competition with cold derivatives to LNCaP and PC-3 cells was performed according to the methods of Tang et al. (Tang, H.; Brown, M.; Ye, Y.; Huang, G.; Zhang, Y.; Wang, Y.; Zhai, H.; Chen, X.; Shen, T. Y.; Tenniswood, M., Prostate targeting ligands based on N-acetylated alpha-linked acidic dipeptidase, Biochem. Biophys. Res. Commun. 2003, 307, 8-14) with appropriate modifications. Cells were plated in 12-well plates at approximately 4×10^5 cells/well and incubated for 48 hours in a humidified incubator at 37° C./5% carbon dioxide prior to addition of compound. Each unique SAAC-urea-Glu conjugate was prepared and diluted in serum-free cell culture medium containing 0.5% bovine serum albumin (BSA) in combination with 3 nM I-131 DCIT (known inhibitor). Total binding was determined by incubating I-131 DCIT without test compound. Plates were incubated at room temperature for 1 hour. Cells were removed from the plates by gently pipeting and transferred to eppendorff tubes. Samples were microcentrifuged for 15 seconds at 10K×g. The medium was aspirated and the pellet was washed twice by dispersal in fresh assay medium followed by microcentrifugation. Cell binding of I-131 DCIT was determined by counting the cell pellet in an automated gamma counter. […] The control compounds are depicted below.
The ability of non-radioactive analogs to compete with ^131I-DCIT for binding to PSMA was tested in the PSMA positive human prostate cancer cell line, LNCaP cells. LNCaP cells (300,000 cells/well) were incubated for 1 hour with 3 nM [^131I]-DCIT in the presence of 1-10,000 nM MIP-1072 in RPMI-1640 medium supplemented with 0.5% bovine serum albumin, then washed and counted in a gamma counter. All documents cited in this specification including patent applications are incorporated by reference in their entirety.

[7] = test system: PSMA positive LNCaP xenografts; type: in vivo, male NCr Nude mice
Method: Tissue biodistribution of I^23I-MIP-1072 (2 μCi/mouse, >1,000 mCi/μmole) was assessed in selected tissues from LNCaP (PSMA positive) tumor bearing nude mice. Results are expressed as the percent of the injected dose per gram of the selected tissues (% ID/g).
(§3) FIG. 21 Uptake of ^23I-MIP-1072 in LNCaP and PC3 xenograft bearing mice.
(§4) A quantitative analysis of the tissue distribution of ^123I-MIP-1072 was performed in separate groups of male NCr Nude^−/− mice bearing PSMA positive LNCaP xenografts (approximately 100-200 mm^3) administered via the tail vein as a bolus injection (approximately 2 μCi/mouse) in a constant volume of 0.05 ml. The animals (n=5/time point) were euthanized by asphyxiation with carbon dioxide at 0.25, 1, 2, 4, 8, and 24 hours post injection. Tissues (blood, heart, lungs, liver, spleen, kidneys, adrenals, stomach, large and small intestines (with contents), testes, skeletal muscle, bone, brain, adipose, and tumor) were dissected, excised, weighed wet, transferred to plastic tubes and counted in an automated γ-counter (LKB Model 1282, Wallac Oy, Finland). […] MIP-1072, uptake and exposure was greatest in the kidney and LNCaP xenograft which express high levels of PSMA. Peak uptake in the kidney was 158±46% ID/g at 2 hours and the LNCaP xenograft was 17±6% ID/g at 1 hours (FIG. 20).

[8] = test system: PC3 tumors which do not express PSMA; assay: Tumor uptake of 123I-MIP-1072 in PC3 xenograft bearing mice; type: in vivo, male NCr Nude mice; conditions: 1 hour post injection
Method: as §3, §4

T1 sequence (Q04609 whole entry): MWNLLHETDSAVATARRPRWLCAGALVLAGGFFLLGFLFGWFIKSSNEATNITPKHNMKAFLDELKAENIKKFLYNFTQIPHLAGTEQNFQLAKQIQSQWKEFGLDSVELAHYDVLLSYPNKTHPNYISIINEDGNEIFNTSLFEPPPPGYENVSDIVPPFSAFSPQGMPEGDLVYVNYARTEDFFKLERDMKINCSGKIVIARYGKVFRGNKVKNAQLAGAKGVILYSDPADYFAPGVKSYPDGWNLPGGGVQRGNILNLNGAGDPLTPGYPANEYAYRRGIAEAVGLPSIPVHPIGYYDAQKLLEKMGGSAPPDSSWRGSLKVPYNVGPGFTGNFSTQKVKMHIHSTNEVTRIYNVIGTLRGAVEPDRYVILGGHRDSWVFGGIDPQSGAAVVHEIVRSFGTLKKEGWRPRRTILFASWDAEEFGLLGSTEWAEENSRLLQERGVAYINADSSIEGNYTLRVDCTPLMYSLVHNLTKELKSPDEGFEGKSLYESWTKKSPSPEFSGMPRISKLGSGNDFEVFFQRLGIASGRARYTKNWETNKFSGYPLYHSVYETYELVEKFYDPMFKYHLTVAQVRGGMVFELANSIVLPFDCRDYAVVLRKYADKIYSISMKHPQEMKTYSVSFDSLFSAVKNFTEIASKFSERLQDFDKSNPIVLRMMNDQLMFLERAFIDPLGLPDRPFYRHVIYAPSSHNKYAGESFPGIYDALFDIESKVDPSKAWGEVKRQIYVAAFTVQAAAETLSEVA

| SMILES | Bmax ([1]; 4° C.) | Kd ([1]; 4° C., nonlinear regression) | Bmax ([1]; 37° C.) | Kd ([1]; 37° C.) | degradation of the parent by rat liver microsomes [2] | activity in PC3 (PSMA negative) tumors [3] | internalization in LNCaP cells [4] | time at which binding to PSMA reached equilibrium ([4]; 4° C., LNCaP cells) | uptake in LNCaP (PSMA positive) tumors [5] | IC50 [6] | tumor and kidney uptake after pretreatment with PMPA ([7]; 50 mg/kg PMPA 5 minutes prior to injection, 1 hour post injection) | localization to PSMA expressing LNCaP tumors ([7]; 1 hour post injection) | peak uptake in the LNCaP xenograft ([7]; at 1 hours post injection, tail vein bolus) | localization to PC3 tumors [8] |
| --- | --- | --- | --- | --- | --- | --- | --- | --- | --- | --- | --- | --- | --- | --- |
| O=C(O)CC[C@H](NC(=O)N[C@@H](CCCCNCc1ccc(I)cc1)C(=O)O)C(=O)O [MIP 1072, (S, S)-2-{3-[1-Carboxy-5-(4-iodo-benzylamino)-pentyl]-ureido}-pentanedioic] | 1,490 fmoles/10^6 cells | 4.8 nM | 4,400 fmol/10^6 cells | 8.1 nM | not degraded | very little activity | internalized | 15 min | significant uptake | < 50 nM | – | – | – | – |
| O=C(O)CC[C@H](NC(=O)N[C@@H](CCCCNCc1ccc([123I])cc1)C(=O)O)C(=O)O [123I-MIP-1072] | – | – | – | – | – | – | internalized at 37 °C but not at 4 °C | – | – | – | blocked | localization to PSMA expressing LNCaP tumors | 17±6 % ID/g | not PC3 tumors |
| CCOc1ccc(NC(C)=O)cc1 [phenacetin, reference compound] | – | – | – | – | 22% | – | – | – | – | – | – | – | – | – |
